Where a name gives a salt, the structure may show the parent alone. Read-outs that look alike come from different tables or passages of the source.

The record followed here is patent publication US20110003711A1 (CHROMOCELL CORPORATION, priority 2008, published 2011).

The target of assay [1] is T1, GABAA receptor α3β3γ2s (α3) (Homo sapiens, UniProt P18507+P28472+P34903).
T1 construct: Human GABAA receptor alpha 3 subunit amino acid; Human GABAA receptor beta 3 variant 1 subunit amino acid; Human GABAA receptor gamma 2 variant 1 (short) subunit amino acid; expressed in transfected cells
As to the kind of experiment: Membrane potential assay, CHO cell line expressing GABAA α3β3γ2s. Type of assay: cell-based. The protocol:
(§1) As will be appreciated by those of skill in the art, any reagent that is suitable for use with a chosen host cell may be used to introduce a nucleic acid, e.g. plasmid, oligonucleotide, labeled oligonucleotide, into a host cell with proper optimization. Examples of reagents that may be used to introduce nucleic acids into host cells include but are not limited to Lipofectamine, Lipofectamine 2000, Oligofectamine, TFX reagents, Fugene 6, DOTAP/DOPE, Metafectine, or Fecturin.
(§2) Cells were plated 24 hours prior to assay at 10-25,000 cells per well in 384 well plates in growth media (Ham's F-12 media plus FBS and glutamine). […] Incubation was for 1 hour, followed by plate loading onto the high throughput fluorescent plate reader (Hamamastu FDSS). […] The plates were read for 90 seconds.
(§3) Interaction of cell lines with test compounds was evaluated by measuring the membrane potential of GABAA, in response to test compounds using the following protocol.

For assay [2], the target named is T2, GABAA receptor α2β3γ2s (α2) (Homo sapiens, UniProt P18507+P28472+P47869, A343T).
T2 construct: Human GABAA receptor alpha 2 subunit amino acid; Human GABAA receptor beta 3 variant 1 subunit amino acid; Human GABAA receptor gamma 2 variant 1 (short) subunit amino acid; expressed in transfected cells
As to the kind of experiment: Membrane potential assay, CHO cell line expressing GABAA α2β3γ2s. The assay is classed as cell-based. As to conditions: membrane potential assay, CHO α2β3γ2s cell line. Here is the method:
as §1, §2, §3

The target in assay [3] is T3, GABAA receptor α1β3γ2s (α1) (Homo sapiens, UniProt P14867+P18507+P28472).
T3 construct: Human GABAA receptor alpha 1 subunit amino acid; Human GABAA receptor beta 3 variant 1 subunit amino acid; Human GABAA receptor gamma 2 variant 1 (short) subunit amino acid; expressed in transfected cells
As to the kind of experiment: Membrane potential assay, CHO cell line expressing GABAA α1β3γ2s. The assay is classed as cell-based. Here is the method: as §1, §2, §3

Assay [4] deals with T4, GABAA receptor α5β3γ2s (α5) (Homo sapiens, UniProt P18507+P28472+P31644).
T4 construct: Human GABAA receptor alpha 5 subunit amino acid; Human GABAA receptor beta 3 variant 1 subunit amino acid; Human GABAA receptor gamma 2 variant 1 (short) subunit amino acid; expressed in transfected cells
Nature of the assay: Membrane potential assay, CHO cell line expressing GABAA α5β3γ2s. Type of assay: cell-based. Here is the method:
as §1, §2, §3

Assay [5] deals with T5, GABAA receptor α2β3γ2s (α2) (Homo sapiens, UniProt P18507+P28472+P47869).
T5 construct: Human GABAA receptor alpha 2 subunit amino acid; Human GABAA receptor beta 3 variant 1 subunit amino acid; Human GABAA receptor gamma 2 variant 1 (short) subunit amino acid; expressed in transfected cells
As to the kind of experiment: Membrane potential assay, CHO cell line expressing GABAA α2β3γ2s. Type of assay: cell-based. The protocol: as §1, §2, §3

The test system of assay [6] is GABAA-meYFP-CHO cells (α1β3γ2s, α2β3γ2s, α3β3γ2s, α5β3γ2s). Nature of the assay: In-cell readout assay using halide-sensitive meYFP. The assay is classed as cell-based, human. As to conditions: increasing concentrations of GABA ligand. Here is the method: The response of GABAA (subunit combinations of α1β3γ2s (A1), α2β3γ2s (A2), α3β3γ2s (A3) and α5β3γ2s (A5)) expressing CHO cells of the invention to test compounds was evaluated using the following protocol for an in-cell readout assay.
Cells were plated 24 hours prior to assay at 10-25,000 cells per well in 384 well plates in growth media (Ham's F-12 media plus FBS and glutamine). […] The assay plates were then loaded on the FDSS (Hamamatsu Corporation). […] The plates were read for 90 seconds.

Where [7] appears, read: membrane potential assay, CHO α3β3γ2s cell line, read-out: EC50 Values α3.
The mark [8] stands for this setting: membrane potential assay, CHO α1β3γ2s cell line, read-out: EC50 Values α1.
The mark [9] stands for this setting: membrane potential assay, CHO α5β3γ2s cell line, read-out: EC50 Values α5.

T4 sequence (P31644 32-462): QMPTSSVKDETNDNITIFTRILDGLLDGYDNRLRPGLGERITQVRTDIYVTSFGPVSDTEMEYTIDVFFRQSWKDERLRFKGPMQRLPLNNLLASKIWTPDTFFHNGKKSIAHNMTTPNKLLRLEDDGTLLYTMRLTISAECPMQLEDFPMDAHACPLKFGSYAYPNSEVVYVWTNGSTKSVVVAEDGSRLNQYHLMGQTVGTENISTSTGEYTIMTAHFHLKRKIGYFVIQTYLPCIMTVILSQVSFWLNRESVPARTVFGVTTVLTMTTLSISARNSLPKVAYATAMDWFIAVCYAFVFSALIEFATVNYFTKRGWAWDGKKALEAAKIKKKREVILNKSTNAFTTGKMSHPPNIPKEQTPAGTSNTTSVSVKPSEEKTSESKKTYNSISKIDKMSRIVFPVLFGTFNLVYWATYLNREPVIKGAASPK
T4 sequence (P28472 26-473): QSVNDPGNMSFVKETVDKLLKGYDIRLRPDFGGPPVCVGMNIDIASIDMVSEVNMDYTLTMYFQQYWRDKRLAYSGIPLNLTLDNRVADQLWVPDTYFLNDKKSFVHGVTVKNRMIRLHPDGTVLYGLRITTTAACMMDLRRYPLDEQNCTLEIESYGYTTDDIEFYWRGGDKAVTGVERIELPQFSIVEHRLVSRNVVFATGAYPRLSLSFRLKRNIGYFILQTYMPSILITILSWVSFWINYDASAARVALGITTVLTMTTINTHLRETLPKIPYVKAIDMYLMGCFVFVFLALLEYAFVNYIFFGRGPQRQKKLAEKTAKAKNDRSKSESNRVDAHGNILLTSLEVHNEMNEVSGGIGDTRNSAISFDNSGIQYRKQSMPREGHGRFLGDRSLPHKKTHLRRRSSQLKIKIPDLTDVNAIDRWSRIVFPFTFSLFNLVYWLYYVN
T4 sequence (P18507 40-467 isoform P18507-1 limits assumed): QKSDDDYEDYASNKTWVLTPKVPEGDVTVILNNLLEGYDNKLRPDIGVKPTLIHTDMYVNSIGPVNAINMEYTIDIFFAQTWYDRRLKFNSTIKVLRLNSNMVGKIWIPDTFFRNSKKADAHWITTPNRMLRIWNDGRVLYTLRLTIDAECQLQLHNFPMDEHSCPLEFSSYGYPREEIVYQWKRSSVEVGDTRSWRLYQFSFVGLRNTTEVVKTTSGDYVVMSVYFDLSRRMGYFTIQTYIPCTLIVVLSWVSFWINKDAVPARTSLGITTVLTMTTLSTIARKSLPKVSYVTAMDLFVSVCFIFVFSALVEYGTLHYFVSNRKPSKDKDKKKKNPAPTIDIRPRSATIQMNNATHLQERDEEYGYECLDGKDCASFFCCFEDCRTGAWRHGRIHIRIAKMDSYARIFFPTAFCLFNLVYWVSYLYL
T3 sequence (P14867 28-456): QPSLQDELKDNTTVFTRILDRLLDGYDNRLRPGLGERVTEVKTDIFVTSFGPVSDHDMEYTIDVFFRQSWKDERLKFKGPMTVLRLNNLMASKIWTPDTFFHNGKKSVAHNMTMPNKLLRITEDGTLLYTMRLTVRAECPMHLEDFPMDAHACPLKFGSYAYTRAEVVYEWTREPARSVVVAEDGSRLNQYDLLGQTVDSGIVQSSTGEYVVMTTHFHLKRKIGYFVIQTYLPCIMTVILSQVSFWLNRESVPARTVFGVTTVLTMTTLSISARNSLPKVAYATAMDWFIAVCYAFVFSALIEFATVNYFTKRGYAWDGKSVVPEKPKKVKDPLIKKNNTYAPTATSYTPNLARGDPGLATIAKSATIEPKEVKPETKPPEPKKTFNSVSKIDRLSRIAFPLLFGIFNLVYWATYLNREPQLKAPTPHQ
T3 sequence (P28472 26-473): as the sequence (P28472 26-473) above
T3 sequence (P18507 40-467 isoform P18507-1 limits assumed): as the sequence (P18507 40-467 isoform P18507-1 limits assumed) above
T5 sequence (P47869 29-451 A343T): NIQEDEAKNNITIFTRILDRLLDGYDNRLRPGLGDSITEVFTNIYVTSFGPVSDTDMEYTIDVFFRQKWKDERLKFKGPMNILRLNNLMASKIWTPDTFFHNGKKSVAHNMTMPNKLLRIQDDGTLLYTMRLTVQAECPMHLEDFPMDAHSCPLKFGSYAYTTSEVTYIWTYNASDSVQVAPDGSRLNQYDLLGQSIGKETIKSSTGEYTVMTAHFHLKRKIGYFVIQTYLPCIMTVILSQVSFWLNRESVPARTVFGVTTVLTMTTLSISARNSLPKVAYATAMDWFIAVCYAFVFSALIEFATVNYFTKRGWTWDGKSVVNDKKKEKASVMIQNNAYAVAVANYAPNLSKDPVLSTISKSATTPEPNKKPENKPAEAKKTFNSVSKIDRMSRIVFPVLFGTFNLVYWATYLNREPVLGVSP
T5 sequence (P28472 26-473, change not shown): as the sequence (P28472 26-473) above
T5 sequence (P18507 40-467 isoform P18507-1, change not shown): as the sequence (P18507 40-467 isoform P18507-1 limits assumed) above
T2 sequence (P47869 29-451 A343T): as the sequence (P47869 29-451 A343T) above
T2 sequence (P28472 26-473, stated change not applied): as the sequence (P28472 26-473) above
T2 sequence (P18507 40-467 isoform P18507-1, stated change not applied): as the sequence (P18507 40-467 isoform P18507-1 limits assumed) above
T1 sequence (P34903 29-492): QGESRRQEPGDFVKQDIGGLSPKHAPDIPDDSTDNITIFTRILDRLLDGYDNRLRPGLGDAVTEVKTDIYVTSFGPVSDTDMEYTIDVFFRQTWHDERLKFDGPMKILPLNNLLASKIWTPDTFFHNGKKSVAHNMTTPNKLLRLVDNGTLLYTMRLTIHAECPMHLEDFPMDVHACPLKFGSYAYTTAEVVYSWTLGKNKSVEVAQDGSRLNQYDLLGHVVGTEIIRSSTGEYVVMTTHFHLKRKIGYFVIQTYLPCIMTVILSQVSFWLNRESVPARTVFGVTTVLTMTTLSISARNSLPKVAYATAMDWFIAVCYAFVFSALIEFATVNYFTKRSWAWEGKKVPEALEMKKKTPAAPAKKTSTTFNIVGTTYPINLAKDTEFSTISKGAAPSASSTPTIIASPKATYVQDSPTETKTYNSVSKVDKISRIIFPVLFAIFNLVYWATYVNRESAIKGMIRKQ
T1 sequence (P28472 26-473): as the sequence (P28472 26-473) above
T1 sequence (P18507 40-467 isoform P18507-1 limits assumed): as the sequence (P18507 40-467 isoform P18507-1 limits assumed) above

A word on the EC50: it is the concentration needed to bring the measured effect to its halfway point. Consider `C[C@]12CC[C@@H](O)C[C@@H]1CC[C@@H]1[C@@H]2CC[C@]2(C)[C@@H](C(=O)CO)CC[C@@H]12` [3-alpha, 21-dihydroxy-5-alpha-pregnan-20-one], for which the EC50 was 0.0802 µM in assay [1] (setting [7]), 0.123 µM in assay [2], 0.382 µM in assay [3] (setting [8]) and 0.0173 µM in assay [4] (setting [9]).
Turning to `CC(=O)[C@H]1CC[C@H]2[C@@H]3CC[C@H]4C[C@H](O)CC[C@]4(C)[C@H]3CC[C@]12C` [5-alpha-Pregnan-3alpha-ol-20-one], the EC50 was determined as 0.08 µM in assay [1] (setting [7]), 0.14 µM in assay [5], 0.692 µM in assay [3] (setting [8]) and 0.0336 µM in assay [4].
Turning to `C[C@]12CC[C@@H](O)C[C@@H]1CC[C@@H]1[C@@H]2CC[C@]2(C)C(=O)CC[C@@H]12` [Androsterone], the EC50 in assay [1] was determined as 1.12 µM; in assay [5] it was 1.52 µM; in assay [3], 1.48 µM; in assay [4], 0.337 µM.
As for `CN1C(=O)CCS(=O)(=O)C1c1ccc(Cl)cc1` (stereo not shown) [Chlormezanone], the EC50 in assay [1] was 0.007 µM; in assay [5], 0.00542 µM; in assay [3], 0.00174 µM; in assay [4], 0.0141 µM.
`OCCN(CCO)c1nc(N2CCCCC2)c2nc(N(CCO)CCO)nc(N3CCCCC3)c2n1` [Dipyridamole]: the EC50 in assay [1] (setting [7]) amounted to 3.69 µM; in assay [2] it was 3.68 µM; in assay [4] (setting [9]) it was 1.37 µM.
As for `CCOC(=O)c1cnc2c(cnn2CC)c1NN=C(C)C` [Etazolate], the EC50 stood at 0.569 µM in assay [1] (setting [7]), 0.79 µM in assay [2], 2.54 µM in assay [3] (setting [8]) and 0.281 µM in assay [4] (setting [9]).
As for `NCCCC(=O)O` [GABA, Gamma-aminobutyric acid], the “Quench of meYFP signal” value in assay [6] is “increasing quench of meYFP signal”.
Take `COc1cc(/C=C(\C#N)C(=O)c2ccc(O)c(O)c2)cc(I)c1O` [I-OMe Tyrphostin 538]: the results for the concentration giving a half-maximal response (EC50) in assay [1] (setting [7]), in assay [2] and in assay [3] (setting [8]) were 2.2 µM, 1.5 µM and 3.5 µM, respectively. In addition, in assay [4] (membrane potential assay, CHO α5β3γ2s cell line), the “EC50 Values α5 (result in words)” value is “α5 Not active”.
In the case of `O=C(O)C1=CCNCC1` [Isoguvacine hydrochloride], the EC50 is 6.78 µM in assay [1] (setting [7]), 3.42 µM in assay [2], 3.57 µM in assay [3] (setting [8]) and 1.13 µM in assay [4] (setting [9]).
For `NCc1cc(=O)[nH]o1` [Muscimol], the EC50 was found to be 0.367 µM in assay [1], 0.675 µM in assay [5], 4 µM in assay [3] and 0.08 µM in assay [4].
As to `O=C(Nc1ccc([N+](=O)[O-])cc1Cl)c1cc(Cl)ccc1O` [Niclosamide], the EC50 in assay [1] (setting [7]) is 0.55 µM; in assay [4] (setting [9]) it was 0.69 µM.
Regarding `O=S(=O)(O)C1CCNCC1` [Piperidine-4-sulphonic acid], the EC50 stood at 8.33 µM in assay [1] (setting [7]), 20 µM in assay [2], 13 µM in assay [3] (setting [8]) and 14.2 µM in assay [4] (setting [9]).
On to `CC(C)c1cccc(C(C)C)c1O` [Propofol], for which the EC50 in assay [1] worked out at 12.9 µM; in assay [5], 42.8 µM; in assay [3], 33.4 µM; in assay [4], 2 µM.
As for `CCCCNc1c(C(=O)OCC)c(C)nc2c1cnn2CC` [Tracazolate], the EC50 in assay [1] (setting [7]) was 4.3 µM; in assay [2] it was 8.9 µM; in assay [3] (setting [8]), 10.6 µM; in assay [4] (setting [9]), 0.762 µM.
The matching figures for `CC(C)(C)c1cc(C=C(C#N)C#N)cc(C(C)(C)C)c1O` [Tyrphostin A9]: 5 µM, 0.88 µM, 1.8 µM and 54 µM.
The matching figures for Ivermectin: 0.798 µM, 0.767 µM, 4.26 µM and 0.687 µM.
